According to paper PMC4658139 (PLoS ONE, 2015):
Like-named read-outs stand apart in the source and are kept apart here.

Assays:
[1] = tested on: macrophages; conditions: cited from earlier work
[2] = tested on: Sprague-Dawley rats; conditions: rat, in vivo, po; cited from earlier work
[3] = tested on: PBCEC monolayer; conditions: pig
[4] = tested on: porcine brain capillary endothelial cells (PBCEC)
[5] = tested on: PBCEC monolayer; conditions: pig; remark: listed apart in the source
[6] = tested on: PBCEC monolayer
[7] = tested on: Sprague-Dawley rats; conditions: rat, in vivo, po; cited from earlier work; remark: listed apart in the source
[8] = tested on: dendric cells; conditions: cited from earlier work
[9] = in vitro; conditions: pig
[10] = tested on: PBCEC monolayer; type: cell-based, porcine
[11] = pig, in vivo; cited from earlier work
[12] = pig, in vivo, 0.6 mg; cited from earlier work
[13] = tested on: normal human astrocytes (NHA); conditions: read-out: IC50, cytotoxic effects; cited from earlier work

## O=c1cc(O)c1=O [MON, moniliformin]
[1]
  effect on viability of macrophages, in words: does not reduce the viability of macrophages
[2]
  administered dose detected in feces: 2%
  administered dose excreted via urine: 20.2-31.5%
  lowest observed adverse effect level (LOAEL): 3 mg/kg body weight
[3]
  p c(14C sucrose), sucrose permeability of the monolayer after mycotoxin incubation: 0.19±0.05
[4]
  effect on cellular viability, in words: no significant effects on the cellular viability
[5]
  amount detected in the basolateral compartment: 27±6%
  amount recovered in the apical compartment: 76±12%
[6]
  enrichment in one compartment / active transport, in words: not enriched in any compartment
[6]; pig
  concentration in the apical compartment: 237 ± 23 nM
  concentration in the basolateral compartment: 228 ± 27 nM
[7]
  LD50 cut-off value: 25 mg/kg body weight
  administered dose detected in urine: 38%
  total recovery in feces: less than 1%
  total recovery in urine: 42%
[8]
  reduction of cellular viability: 20%
[9]
  Papp A→B: 1.07 ± 0.23 ×10⁻⁶ cm/s
[10]
  change of electrical capacitance c CL, in words: Neither 3-AcDON, nor MON showed significant changes
  relative TEER after 48 h: 94±15%

## CC(=O)O[C@@H]1C[C@]2(C)[C@@]3(CO)[C@H](O)C(=O)C(C)=C[C@H]3O[C@H]1[C@@]21CO1 [3-AcDON, 3-acetyldeoxynivalenol]
[4]
  effect in CCK-8 assay (dehydrogenase activity), in words: significant increase in dehydrogenase activity
[6]; pig
  concentration in the apical compartment: 174 ± 20 nM
  concentration in the basolateral compartment: 198 ± 16 nM
  enrichment in one compartment / active transport, in words: an active transfer or a noteworthy enrichment of DON or 3-AcDON can be excluded
[10]
  change of electrical capacitance c CL, in words: Neither 3-AcDON, nor MON showed significant changes
  relative TEER after 48 h: 63±9%

## CC1=C[C@H]2O[C@@H]3[C@H](O)C[C@](C)([C@@]2(CO)[C@H](O)C1=O)[C@]31CO1 [DON, deoxynivalenol]
[4]
  effect in CCK-8 assay (dehydrogenase activity), in words: significant increase in dehydrogenase activity
[11]
  time of maximum concentration in CSF and blood: 4.5 h
[6]
  enrichment in one compartment / active transport, in words: no enrichment in the apical or the basolateral compartment was detected
[6]; pig
  concentration in the apical compartment: 211 ± 15 nM
  concentration in the basolateral compartment: 199 ± 14 nM
[12]
  systemic bioavailability: 48–65%
[10]
  electrical capacitance c CL after 48 h: 81±2%

## CC(=O)OC[C@]12C[C@H](OC(=O)CC(C)C)C(C)=C[C@H]1O[C@@H]1[C@H](O)[C@@H](OC(C)=O)[C@@]2(C)[C@]12CO2 [T-2 toxin, reference compound]
[4]; 10 µM
  cellular viability: < 2%
[13]
  IC50: 24 ± 4.5 nM
